Columns and labels:
[1] = test system: mouse primary neurons; experiment: Live-dead cell viability assay (calcein-AM / ethidium homodimer); assay type: cell-based; settings: 1 mM to 15 mM, 24 h, cultured mouse primary neurons
[2] = test system: 5×FAD mice; experiment: Intracerebroventricular Alzet pump infusion in 5×FAD and wild type mice: Bdnf, LTP, Y-maze, Morris water maze; assay type: in vivo, mouse
Source text: All animal procedures were approved by the Weill Cornell Medicine Institutional Animal Care and Use Committee (Animal protocol: 2014-0029) and conducted in accordance with the NIH Guide for the Care and Use of Laboratory Animals and ARRIVE guidelines. We used C57/BL6 mice for the induction of ischemic stroke and hemorrhagic stroke. 8-10 weeks old female pregnant CD1 mice were used for primary neuronal culture. Ppp1R15b^flox/flox mice were obtained from Ann-Hwee Lee's group currently working at Regeneron and were bred at Burke Neurological Institute. The genotypes of Ppp1R15b^flox/flox mice were assessed with PCR using DNA isolated from clipped tails of mice. Twelve weeks old male Ppp1R15b^flox/flox mice were used for inactivation of R15b regulatory subunit of protein phosphatase 1 in the hippocampus through AAV8 GFP or Cre intracranial injection. In the current study, 5×FAD mouse was used as a model of AD as this model represents pathological characteristics seen in both genetic as well as sporadic forms of AD. 5×FAD mice (B6/SJL genetic background) was purchased from Jackson's laboratory and was maintained by breeding male heterozygous transgenic mice with wild type female mice. The 5×FAD mice express human APP and PSEN1 transgenes with a total of five AD-linked mutations: the Swedish (K670N/M671L), Florida (I716V), and London (V717I) mutations in APP, and the M146L and L286V mutations in PSEN1. In the current study, 6-7 months old 5×FAD mice were used for the Alzet mini osmotic pump implantation followed by memory assessment, LTP assessment, and gene expression studies.
Brains were quickly removed from mice sacrificed by cervical dislocation and placed in cold artificial cerebrospinal fluid (ACSF) (bubbled with 95% O2/5% CO2) containing (in mM): 124 NaCl, 4 KCl, 1 Na2HPO4, 25 NaHCO3, 2 CaCl2, 2 MgCl2, and 10 glucose. The pH and osmolarity of the solution were 7.4 and 310 mOsm/L, respectively. The hippocampus was isolated and placed on a mechanical tissue chopper to produce transverse hippocampal slices of 400 μm thickness. Slices were maintained in a humidified interface chamber at 29° C. and continuously perfused (˜1 mL/min) with 95% O2/5% CO2-bubbled ACSF. Hippocampal slices were allowed to recover for at least 90 min prior to beginning the experiment. For recordings, glass electrodes were filled with ACSF and positioned in the CA1 stratum radiatum to record fEPSPs evoked by local stimulation (0.1 ms) of Schaffer collateral fibers using a bipolar concentric electrode placed laterally to the recording electrode (˜150 μm). For LTP recordings, the voltage intensity of the stimulation test pulse (square pulse, 100 us duration) for each slice was determined to be the voltage intensity that had generated 30-40% of the maximum slope obtained using input-output relationships. Facilitation was calculated as the ratio of the slopes of the second and first fEPSPs, and plotted as a function of the inter-pulse duration. For LTP, a test pulse was applied every minute. Following a steady baseline of 15 min, potentiation was induced with either 100 Hz for 1 s (weak stimulation) or 3 theta-burst stimulations (TBS; 15 s interval), each one involving a single train of 10 bursts at 5 Hz, where each burst is composed of 4 pulses at 100 Hz (strong stimulation). The fEPSP slopes following tetanic stimulation were normalized to the average of the slopes of the fEPSPs acquired during the baseline. Residual potentiation was calculated as the average of the last 15 min of 2 h of recordings.
The sterile Alzet mini osmotic pumps (Durect, pump model 1004) were filled with 100 μl of either saline or 2-deoxyglucose (10 μg/μl) and were incubated in saline for 24 h to allow the osmotic release of the drug. Thereafter, the pumps were attached properly with the plastic tubing provided in the brain infusion kit 2 3-5 mm (Durect, catalog number 0008663). We made an intracerebroventricular groove stereotaxically in the mouse brain. […]

[3] = test system: rats; settings: dietary supplementation in rats; cited from earlier work
[4] = ICV Alzet pump, four weeks, wild type mice
[5] = ICV Alzet pump, four weeks, versus wild type mice treated with saline

What does the source list for `OC[C@H]1OC(O)C[C@@H](O)[C@@H]1O` (stereo partly drawn) [2-DG, (4R,5S,6R)-6-(hydroxymethyl)oxane-2,4,5-triol]?
toxicity / neuronal cell death in live-dead assay [1]: no toxicity; Bdnf gene expression in wild type mice [2, 4]: didn't lead to nootropic upregulation; LTP in wild type mice [2, 4]: didn't lead to nootropic upregulation; Morris water maze task in wild type mice [2, 4]: did not show any nootropic increase; Y-maze task in wild type mice [2, 4]: did not show any nootropic increase; LTP in hippocampal slices from 5×FAD mice ([2]; ICV Alzet pump, four weeks, 5×FAD (saline) vs 5×FAD (2-DG) p=0.0194): normalized; Bdnf gene expression in 5×FAD mice [2, 5]: normalized; spatial long-term memory in Morris water maze, 5×FAD mice [2, 5]: normalized these memories; spatial short-term memory, spontaneous alternation test in Y-maze, 5×FAD mice [2, 5]: normalized these memories; driving the adaptive plasticity program ([2]; intracerebroventricular infusion at 1 g/Kg/day): sufficient in driving the adaptive plasticity program; physiological effects (insulin level, body temperature, blood pressure, heart rate, plasma glucose level, stress adaptation) [3]: mimic the physiological effects of calorie restriction

From patent publication US20240197760A1, “ACTIVATORS OF INTEGRATED STRESS RESPONSE PATHWAY FOR PROTECTION AGAINST FERROPTOSIS” (Burke Neurological Institute, priority 2021, published 2024)
